This note sets out measurements from ChEMBL document CHEMBL1158545, “3'-(1,2,3-Triazol-1-yl)-3'-deoxythymidine analogs as substrates for human and Ureaplasma parvum thymidine kinase for structure-activity investigations” (Bioorg Med Chem, 2010).

The target of data set [1] is T1, Thymidine kinase (Ureaplasma parvum serovar 3 (strain ATCC 700970)) (UniProt Q9PPP5).
T1 sequence (whole entry): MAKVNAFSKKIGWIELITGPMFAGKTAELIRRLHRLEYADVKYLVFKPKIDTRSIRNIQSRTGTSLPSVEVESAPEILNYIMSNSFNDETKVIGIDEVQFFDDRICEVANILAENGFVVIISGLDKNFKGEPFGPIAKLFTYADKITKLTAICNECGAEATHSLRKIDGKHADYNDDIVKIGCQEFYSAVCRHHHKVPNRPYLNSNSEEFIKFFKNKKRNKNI
The data set is described as follows: Activity of Ureaplasma parvum thymidine kinase relative to dThd.

Data set [2] concerns the target T1, Thymidine kinase (Ureaplasma parvum serovar 3 (strain ATCC 700970)). The data set is described as follows: Ratio of Vmax to Km for Ureaplasma parvum thymidine kinase relative to dThd.
Data set [3] addresses T2, Thymidine kinase, cytosolic (Homo sapiens) (UniProt P04183).
T2 sequence (whole entry): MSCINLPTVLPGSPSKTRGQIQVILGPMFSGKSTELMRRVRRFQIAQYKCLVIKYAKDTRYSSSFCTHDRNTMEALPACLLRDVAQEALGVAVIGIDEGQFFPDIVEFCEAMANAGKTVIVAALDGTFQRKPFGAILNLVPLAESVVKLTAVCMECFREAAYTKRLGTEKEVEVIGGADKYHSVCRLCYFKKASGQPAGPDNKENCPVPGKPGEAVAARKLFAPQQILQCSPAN
Briefly: Ratio of Vmax to Km for human TK1 relative to […].

The target of data set [4] is T2, Thymidine kinase, cytosolic (Homo sapiens). The data set is described as follows: Activity of human TK1 relative to ATP. More on the design: concentration or dose not given beside the values.
The target of a further data set is T3, Thymidine kinase (Ureaplasma parvum serovar 3 (strain ATCC 700970), UniProt Q9PPP5).
T3 sequence (Q9PPP5 whole entry): T1 sequence (whole entry)
Briefly: Inhibition of Ureaplasma parvum thymidine kinase by liquid scintillation counting.

Data set [5] concerns the target T4, Thymidine kinase, cytosolic (Homo sapiens, UniProt P04183).
T4 sequence (P04183 whole entry): T2 sequence (whole entry)
Briefly: Inhibition of human TK1 by liquid scintillation counting.

Substrate in data set [6]: Cc1cn([C@H]2C[C@H](n3cc(-c4ccccn4)nn3)[C@@H](CO)O2)c(=O)[nH]c1=O
As to conditions: Ureaplasma parvum.

Substrate in data set [7]: Cc1cn([C@H]2C[C@H](n3cc(Cc4ccccc4)nn3)[C@@H](CO)O2)c(=O)[nH]c1=O
As to conditions: Ureaplasma parvum.

Substrate in data set [8]: CCCCCc1cn([C@H]2C[C@H](n3cc(C)c(=O)[nH]c3=O)O[C@@H]2CO)nn1
As to conditions: Ureaplasma parvum.

Substrate in data set [9]: Cc1cn([C@H]2C[C@H](n3cc(-c4ccccc4)nn3)[C@@H](CO)O2)c(=O)[nH]c1=O
The note with it: Ureaplasma parvum.

Substrate in data set [10]: CC(=O)OCc1cn([C@H]2C[C@H](n3cc(C)c(=O)[nH]c3=O)O[C@@H]2CO)nn1
The note with it: Ureaplasma parvum.

Substrate in data set [11]: Cc1cn([C@H]2C[C@H](n3cc(C(C)(C)C)nn3)[C@@H](CO)O2)c(=O)[nH]c1=O
The note with it: Ureaplasma parvum.

Substrate in data set [12]: Cc1cn([C@H]2C[C@H](n3cc(CCc4ccccc4)nn3)[C@@H](CO)O2)c(=O)[nH]c1=O
The note with it: Ureaplasma parvum.

Substrate in data set [13]: Cc1cn([C@H]2C[C@H](N=[N+]=[N-])[C@@H](CO)O2)c(=O)[nH]c1=O
The note with it: Ureaplasma parvum.

Substrate in data set [14]: CCCc1cn([C@H]2C[C@H](n3cc(C)c(=O)[nH]c3=O)O[C@@H]2CO)nn1
As to conditions: Ureaplasma parvum.

Substrate in data set [15]: Cc1cn([C@H]2C[C@H](n3cc(-c4ccccn4)nn3)[C@@H](CO)O2)c(=O)[nH]c1=O
The note with it: Homo sapiens.

Substrate in data set [16]: Cc1cn([C@H]2C[C@H](n3cc(Cc4ccccc4)nn3)[C@@H](CO)O2)c(=O)[nH]c1=O
As to conditions: Homo sapiens.

Substrate in data set [17]: CCCCCc1cn([C@H]2C[C@H](n3cc(C)c(=O)[nH]c3=O)O[C@@H]2CO)nn1
The note with it: Homo sapiens.

Substrate in data set [18]: Cc1cn([C@H]2C[C@H](n3cc(-c4ccccc4)nn3)[C@@H](CO)O2)c(=O)[nH]c1=O
As to conditions: Homo sapiens.

Substrate in data set [19]: CC(=O)OCc1cn([C@H]2C[C@H](n3cc(C)c(=O)[nH]c3=O)O[C@@H]2CO)nn1
As to conditions: Homo sapiens.

Substrate in data set [20]: Cc1cn([C@H]2C[C@H](n3cc(C(C)(C)C)nn3)[C@@H](CO)O2)c(=O)[nH]c1=O
The note with it: Homo sapiens.

Substrate in data set [21]: Cc1cn([C@H]2C[C@H](n3cc(CCc4ccccc4)nn3)[C@@H](CO)O2)c(=O)[nH]c1=O
The note with it: Homo sapiens.

Substrate in data set [22]: Cc1cn([C@H]2C[C@H](N=[N+]=[N-])[C@@H](CO)O2)c(=O)[nH]c1=O
As to conditions: Homo sapiens.

Substrate in data set [23]: CCCc1cn([C@H]2C[C@H](n3cc(C)c(=O)[nH]c3=O)O[C@@H]2CO)nn1
As to conditions: Homo sapiens.

Regarding `Cc1cn([C@H]2C[C@H](N=[N+]=[N-])[C@@H](CO)O2)c(=O)[nH]c1=O`, the Activity was 27.8% in data set [1], 43% in data set [2], 50% in data set [3] and 47.3% in data set [4].
`COCc1cn([C@H]2C[C@H](n3cc(C)c(=O)[nH]c3=O)O[C@@H]2CO)nn1`: the figures for the Activity in data set [1] and in [4] were 1.6% and 1.3%, respectively.
In general, IC50 refers to the point on the concentration scale where inhibition reaches its midpoint. In the case of `Cc1cn([C@H]2C[C@H](n3cc(-c4ccc(F)cc4)nn3)[C@@H](CO)O2)c(=O)[nH]c1=O`, the values for the 50% inhibitory concentration (IC50) (at Thymidine kinase; in data set [5]) were 71 µM and 44 µM, respectively. Further, the Activity in [1] came to 13.7%; in data set [3], 1.1%; in data set [4], 2.6%.
In the case of `Cc1cn([C@H]2C[C@H](n3cc(CCc4ccccc4)nn3)[C@@H](CO)O2)c(=O)[nH]c1=O`, the Activity in [1] stood at 12.3%; in data set [2], 0.8%; in data set [3], 0.08%; in data set [4], 2.4%. Further, in data set [5], inhibition was half-maximal at 60 µM (IC50).
For `CC(=O)OCc1cn([C@H]2C[C@H](n3cc(C)c(=O)[nH]c3=O)O[C@@H]2CO)nn1`, the Activity came out at 3.9% in data set [1], 0.6% in data set [2], 0.1% in [3] and 2.4% in [4].
As for `Cc1cn([C@H]2C[C@H](n3cc(-c4ccccn4)nn3)[C@@H](CO)O2)c(=O)[nH]c1=O`, the Activity in [1] amounted to 7.1%; in [2], 1.1%; in [3] it was 0.5%; in [4], 3.1%. Also, the IC50 in data set [5] stood at 53 µM.
On to `CCCCCc1cn([C@H]2C[C@H](n3cc(C)c(=O)[nH]c3=O)O[C@@H]2CO)nn1`, for which the Activity in data set [1] stood at 7.2%; in data set [2], 1.6%; in data set [3], 0.3%; in data set [4] it was 1.9%.
Take `Cc1cn([C@H]2C[C@H](n3cc(CCO)nn3)[C@@H](CO)O2)c(=O)[nH]c1=O`: the Activity turned out to be 4.1% in data set [1] and 2.2% in data set [4].
For `CCCc1cn([C@H]2C[C@H](n3cc(C)c(=O)[nH]c3=O)O[C@@H]2CO)nn1`, the Activity was found to be 6.5% in [1], 0.5% in data set [2], 0.1% in [3] and 2.7% in [4].
Taken in the same sequence, the figures for `Cc1cn([C@H]2C[C@H](n3cc(C(C)(C)C)nn3)[C@@H](CO)O2)c(=O)[nH]c1=O` were 4.7%, 0.15%, 0.07% and 2.2%.
As to `Cc1cn([C@H]2C[C@H](n3cc(Cc4ccccc4)nn3)[C@@H](CO)O2)c(=O)[nH]c1=O`, the concentration for half-maximal inhibition (IC50) was 73 µM on Thymidine kinase and 78 µM in [5]. In addition, the Activity in data set [1] was 11.6%; in data set [2], 0.8%; in data set [3] it was 0.1%; in data set [4], 4.8%.
In the case of `Cc1cn([C@H]2C[C@H](n3cc(-c4ccccc4)nn3)[C@@H](CO)O2)c(=O)[nH]c1=O`, the Activity in data set [1] was found to be 5.5%; in data set [2] it was 0.7%; in data set [3] it was 0.2%; in data set [4], 2.1%. Half-maximal inhibition in data set [5] (IC50) was put at 99 µM.

B1: Thymidine kinase (Ureaplasma parvum serovar 3 (strain ATCC 700970)), Q9PPP5 (protein)
chain: T1 sequence (whole entry)
As a reminder, the Km is the substrate concentration at which the rate is half of its maximum. Regarding B1, the Michaelis constant (Km) in data set [6] came out at 30 µM; in data set [7] it was 85 µM; in data set [8], 32 µM; in data set [9] it was 40 µM; in data set [10], 78 µM; in data set [11] it was 259 µM. Also, the Km in [12] is 104 µM; in data set [13] it was 2.7 µM; in [14], 122 µM.

B2: Thymidine kinase, cytosolic (Homo sapiens), P04183 (protein)
chain: T2 sequence (whole entry)
As for B2, the Km in data set [15] turned out to be 33 µM; in [16], 174 µM; in [17] it was 75 µM; in [18] it was 57 µM; in data set [19], 114 µM; in [20], 243 µM. In addition, the Michaelis-Menten constant (Km) turned out to be 204 µM in data set [21], 3.5 µM in data set [22] and 138 µM in data set [23].
